# Reference: PubChem BioAssay AID272 (DTP/NCI, 2004)
# Where “and” joins values, the source holds several entries; their conditions need not be identical. Identical values can stand only once. Results filed as inconclusive are left out.
# Tested on: Lewis lung carcinoma i.m., BDF1 mice, T/C %
# Assay: NCI In Vivo Anticancer Drug Screen. Data for tumor model Lewis Lung Carcinoma (intramuscular) in B6D2F1 (BDF1) mice
# Procedure, shortened: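 Compound given to mice with transplantable tumours; survival or tumour size compared against the vehicle control group, reported as T divided by C.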
# [1] = endpoint: mean tumor weight, dose: 1.0 mg/kg/injection, schedule: Q01DX011 (ip), vehicle: saline, higher = larger tumour
# [2] = endpoint: median survival time, dose: 2.0 mg/kg/injection, schedule: Q01DX011 (ip), vehicle: saline, higher = longer survival
structure (smiles),measurement,setting,value
CC[C@](O)(C(=O)O)c1cc2n(c(=O)c1CO)Cc1cc3ccccc3nc1-2,T/C,"endpoint: mean tumor weight, dose: 0.06 mg/kg/injection, schedule: Q01DX011 (ip), vehicle: saline, higher = larger tumour",95 % of control
same,T/C,"endpoint: mean tumor weight, dose: 0.12 mg/kg/injection, schedule: Q01DX011 (ip), vehicle: saline, higher = larger tumour",96 % of control
same,T/C,"endpoint: mean tumor weight, dose: 0.25 mg/kg/injection, schedule: Q01DX011 (ip), vehicle: saline, higher = larger tumour",101 % of control
same,T/C,"endpoint: mean tumor weight, dose: 0.5 mg/kg/injection, schedule: Q01DX011 (ip), vehicle: saline, higher = larger tumour",91 % of control
same,T/C,[1],106 % of control
same,T/C,"endpoint: median survival time, dose: 0.06 mg/kg/injection, schedule: Q01DX011 (ip), vehicle: saline, higher = longer survival",105 % of control
same,T/C,"endpoint: median survival time, dose: 0.12 mg/kg/injection, schedule: Q01DX011 (ip), vehicle: saline, higher = longer survival",116 % of control
same,T/C,"endpoint: median survival time, dose: 0.5 mg/kg/injection, schedule: Q01DX011 (ip), vehicle: saline, higher = longer survival",118 % of control
same,T/C,"endpoint: median survival time, dose: 1.0 mg/kg/injection, schedule: Q01DX011 (ip), vehicle: saline, higher = longer survival",102 % of control and 113 % of control and 124 % of control
same,T/C,[2],214 % of control
CC(C)NCC(=O)c1ccc(O)c(O)c1,T/C,"endpoint: mean tumor weight (est.), dose: 42.5 mg/kg/injection, schedule: Q01DX011 (ip), vehicle: saline, higher = larger tumour",90 % of control
same,T/C,"endpoint: mean tumor weight (est.), dose: 85.0 mg/kg/injection, schedule: Q01DX011 (ip), vehicle: saline, higher = larger tumour",93 % of control
same,T/C,"endpoint: median survival time, dose: 42.5 mg/kg/injection, schedule: Q01DX011 (ip), vehicle: saline, higher = longer survival",120 % of control
same,T/C,"endpoint: median survival time, dose: 85.0 mg/kg/injection, schedule: Q01DX011 (ip), vehicle: saline, higher = longer survival",90 % of control
S=c1nc[nH]c2nc[nH]c12,T/C,"endpoint: mean tumor weight, dose: 10.0 mg/kg/injection, schedule: Q01DX011 (ip), vehicle: other, higher = larger tumour",77 % of control
same,T/C,"endpoint: mean tumor weight, dose: 20.0 mg/kg/injection, schedule: Q01DX011 (ip), vehicle: other, higher = larger tumour",77 % of control
same,T/C,"endpoint: mean tumor weight, dose: 40.0 mg/kg/injection, schedule: Q01DX011 (ip), vehicle: other, higher = larger tumour",89 % of control
same,T/C,"endpoint: mean tumor weight, dose: 65.0 mg/kg/injection, schedule: Q01DX011 (ip), vehicle: other, higher = larger tumour",58 % of control
same,T/C,"endpoint: median survival time, dose: 4.0 mg/kg/injection, schedule: Q01DX011 (ip), vehicle: other, higher = longer survival",91 % of control and 108 % of control
same,T/C,"endpoint: median survival time, dose: 8.0 mg/kg/injection, schedule: Q01DX011 (ip), vehicle: other, higher = longer survival",91 % of control and 111 % of control
same,T/C,"endpoint: median survival time, dose: 10.0 mg/kg/injection, schedule: Q01DX011 (ip), vehicle: other, higher = longer survival",110 % of control
same,T/C,"endpoint: median survival time, dose: 16.0 mg/kg/injection, schedule: Q01DX011 (ip), vehicle: other, higher = longer survival",93 % of control
same,T/C,"endpoint: median survival time, dose: 20.0 mg/kg/injection, schedule: Q01DX011 (ip), vehicle: other, higher = longer survival",112 % of control
same,T/C,"endpoint: median survival time, dose: 32.0 mg/kg/injection, schedule: Q01DX011 (ip), vehicle: other, higher = longer survival",98 % of control
CCCCCCCCCCCCCCCCCC[N+](C)(C)C (tested in a mixture with another compound),T/C,[1],59 % of control
same,T/C,"endpoint: mean tumor weight, dose: 2.0 mg/kg/injection, schedule: Q01DX011 (ip), vehicle: saline, higher = larger tumour",64 % of control
same,T/C,[2],88 % of control
CCCCn1cnc2c(=S)nc[nH]c21,T/C,"endpoint: mean tumor weight, dose: 1.56 mg/kg/injection, schedule: Q01DX011 (ip), vehicle: other, higher = larger tumour",89 % of control
same,T/C,"endpoint: mean tumor weight, dose: 6.25 mg/kg/injection, schedule: Q01DX011 (ip), vehicle: other, higher = larger tumour",85 % of control
same,T/C,"endpoint: median survival time, dose: 1.56 mg/kg/injection, schedule: Q01DX011 (ip), vehicle: other, higher = longer survival",94 % of control and 104 % of control
same,T/C,"endpoint: median survival time, dose: 3.12 mg/kg/injection, schedule: Q01DX011 (ip), vehicle: other, higher = longer survival",100 % of control
same,T/C,"endpoint: median survival time, dose: 6.25 mg/kg/injection, schedule: Q01DX011 (ip), vehicle: other, higher = longer survival",97 % of control and 108 % of control
same,T/C,"endpoint: median survival time, dose: 12.5 mg/kg/injection, schedule: Q01DX011 (ip), vehicle: other, higher = longer survival",110 % of control
same,T/C,"endpoint: median survival time, dose: 25.0 mg/kg/injection, schedule: Q01DX011 (ip), vehicle: other, higher = longer survival",116 % of control
CNNCc1ccc(C(=O)NC(C)C)cc1,T/C,"endpoint: mean tumor weight (est.), dose: 23.0 mg/kg/injection, schedule: Q01DX009 (ip), vehicle: saline, higher = larger tumour",86 % of control
same,T/C,"endpoint: mean tumor weight (est.), dose: 39.0 mg/kg/injection, schedule: Q01DX009 (ip), vehicle: saline, higher = larger tumour",95 % of control
same,T/C,"endpoint: mean tumor weight (est.), dose: 65.0 mg/kg/injection, schedule: Q01DX009 (ip), vehicle: saline, higher = larger tumour",64 % of control
same,T/C,"endpoint: mean tumor weight (est.), dose: 108.0 mg/kg/injection, schedule: Q01DX009 (ip), vehicle: saline, higher = larger tumour",79 % of control
same,T/C,"endpoint: mean tumor weight (est.), dose: 180.0 mg/kg/injection, schedule: Q01DX009 (ip), vehicle: saline, higher = larger tumour",95 % of control
same,T/C,"endpoint: mean tumor weight (est.), dose: 300.0 mg/kg/injection, schedule: Q01DX009 (ip), vehicle: saline, higher = larger tumour",37 % of control
same,T/C,"endpoint: mean tumor weight, dose: 23.0 mg/kg/injection, schedule: Q01DX011 (ip), vehicle: saline, higher = larger tumour",100 % of control
same,T/C,"endpoint: mean tumor weight, dose: 37.5 mg/kg/injection, schedule: Q01DX011 (ip), vehicle: saline, higher = larger tumour",78 % of control
same,T/C,"endpoint: mean tumor weight, dose: 39.0 mg/kg/injection, schedule: Q01DX011 (ip), vehicle: saline, higher = larger tumour",72 % of control
same,T/C,"endpoint: mean tumor weight, dose: 65.0 mg/kg/injection, schedule: Q01DX011 (ip), vehicle: saline, higher = larger tumour",37 % of control
same,T/C,"endpoint: mean tumor weight, dose: 75.0 mg/kg/injection, schedule: Q01DX011 (ip), vehicle: saline, higher = larger tumour",62 % of control
same,T/C,"endpoint: mean tumor weight, dose: 108.0 mg/kg/injection, schedule: Q01DX011 (ip), vehicle: saline, higher = larger tumour",62 % of control
same,T/C,"endpoint: mean tumor weight, dose: 150.0 mg/kg/injection, schedule: Q01DX011 (ip), vehicle: saline, higher = larger tumour",35 % of control
same,T/C,"endpoint: mean tumor weight, dose: 180.0 mg/kg/injection, schedule: Q01DX011 (ip), vehicle: saline, higher = larger tumour",41 % of control
same,T/C,"endpoint: median survival time, dose: 37.5 mg/kg/injection, schedule: Q01DX011 (ip), vehicle: saline, higher = longer survival",97 % of control
same,T/C,"endpoint: median survival time, dose: 75.0 mg/kg/injection, schedule: Q01DX011 (ip), vehicle: saline, higher = longer survival",91 % of control
same,T/C,"endpoint: median survival time, dose: 150.0 mg/kg/injection, schedule: Q01DX011 (ip), vehicle: saline, higher = longer survival",95 % of control
CCN(CCO)CCNc1ccc(C)c2sc3ccccc3c(=O)c12,T/C,"endpoint: mean tumor weight (est.), dose: 21.0 mg/kg/injection, schedule: Q01DX011 (ip), vehicle: saline, higher = larger tumour",69 % of control
same,T/C,"endpoint: mean tumor weight (est.), dose: 42.0 mg/kg/injection, schedule: Q01DX011 (ip), vehicle: saline, higher = larger tumour",44 % of control
same,T/C,"endpoint: median survival time, dose: 21.0 mg/kg/injection, schedule: Q01DX011 (ip), vehicle: saline, higher = longer survival",104 % of control
same,T/C,"endpoint: median survival time, dose: 42.0 mg/kg/injection, schedule: Q01DX011 (ip), vehicle: saline, higher = longer survival",110 % of control
COc1cc([C@@H]2c3cc4c(cc3C[C@H]3COC(=O)[C@@H]32)OCO4)cc(OC)c1OC,T/C,"endpoint: mean tumor weight (est.), dose: 5.0 mg/kg/injection, schedule: Q01DX011 (ip), vehicle: saline, higher = larger tumour",68 % of control
same,T/C,"endpoint: mean tumor weight (est.), dose: 10.0 mg/kg/injection, schedule: Q01DX011 (ip), vehicle: saline, higher = larger tumour",54 % of control
same,T/C,"endpoint: mean tumor weight, dose: 6.25 mg/kg/injection, schedule: Q01DX011 (ip), vehicle: saline, higher = larger tumour",100 % of control
same,T/C,"endpoint: mean tumor weight, dose: 12.5 mg/kg/injection, schedule: Q01DX011 (ip), vehicle: saline, higher = larger tumour",70 % of control
same,T/C,"endpoint: median survival time, dose: 6.25 mg/kg/injection, schedule: Q01DX011 (ip), vehicle: saline, higher = longer survival",100 % of control
same,T/C,"endpoint: median survival time, dose: 12.5 mg/kg/injection, schedule: Q01DX011 (ip), vehicle: saline, higher = longer survival",87 % of control
C=C(C(=O)OC1CC2CCC(C1)N2C)c1ccccc1 (centres undefined),T/C,"endpoint: median survival time, dose: 7.5 mg/kg/injection, schedule: Q01DX011 (ip), vehicle: saline, higher = longer survival",119 % of control
N=[N+]=CC(=O)CCC(NC(=O)C(CCC(=O)C=[N+]=N)NC(=O)CCC(N)C(=O)O)C(=O)O (centres undefined),T/C,"endpoint: mean tumor weight, dose: 7.5 micrograms/kg/injection, schedule: Q01DX011 (ip), vehicle: water, higher = larger tumour",63 % of control
same,T/C,"endpoint: mean tumor weight, dose: 15.0 micrograms/kg/injection, schedule: Q01DX011 (ip), vehicle: water, higher = larger tumour",66 % of control
same,T/C,"endpoint: mean tumor weight, dose: 30.0 micrograms/kg/injection, schedule: Q01DX011 (ip), vehicle: water, higher = larger tumour",60 % of control
same,T/C,"endpoint: mean tumor weight, dose: 60.0 micrograms/kg/injection, schedule: Q01DX011 (ip), vehicle: water, higher = larger tumour",63 % of control
same,T/C,"endpoint: median survival time, dose: 0.1 mg/kg/injection, schedule: Q01DX011 (ip), vehicle: saline, higher = longer survival",88 % of control and 101 % of control
same,T/C,"endpoint: median survival time, dose: 0.2 mg/kg/injection, schedule: Q01DX011 (ip), vehicle: saline, higher = longer survival",106 % of control
same,T/C,"endpoint: median survival time, dose: 0.4 mg/kg/injection, schedule: Q01DX011 (ip), vehicle: saline, higher = longer survival",101 % of control and 103 % of control
same,T/C,"endpoint: median survival time, dose: 0.8 mg/kg/injection, schedule: Q01DX011 (ip), vehicle: saline, higher = longer survival",87 % of control
same,T/C,"endpoint: median survival time, dose: 1.6 mg/kg/injection, schedule: Q01DX011 (ip), vehicle: saline, higher = longer survival",87 % of control
same,T/C,"endpoint: median survival time, dose: 7.5 micrograms/kg/injection, schedule: Q01DX011 (ip), vehicle: water, higher = longer survival",104 % of control
same,T/C,"endpoint: median survival time, dose: 12.5 micrograms/kg/injection, schedule: Q01DX009 (ip), vehicle: Klucel (hydroxypropylcellulose) (HPC), higher = longer survival",97 % of control
same,T/C,"endpoint: median survival time, dose: 15.0 micrograms/kg/injection, schedule: Q01DX011 (ip), vehicle: water, higher = longer survival",106 % of control
same,T/C,"endpoint: median survival time, dose: 25.0 micrograms/kg/injection, schedule: Q01DX009 (ip), vehicle: Klucel (hydroxypropylcellulose) (HPC), higher = longer survival",98 % of control
same,T/C,"endpoint: median survival time, dose: 30.0 micrograms/kg/injection, schedule: Q01DX011 (ip), vehicle: water, higher = longer survival",97 % of control
same,T/C,"endpoint: median survival time, dose: 50.0 micrograms/kg/injection, schedule: Q01DX009 (ip), vehicle: Klucel (hydroxypropylcellulose) (HPC), higher = longer survival",90 % of control
same,T/C,"endpoint: median survival time, dose: 60.0 micrograms/kg/injection, schedule: Q01DX011 (ip), vehicle: water, higher = longer survival",102 % of control
same,T/C,"endpoint: median survival time, dose: 100.0 micrograms/kg/injection, schedule: Q01DX009 (ip), vehicle: Klucel (hydroxypropylcellulose) (HPC), higher = longer survival",98 % of control
